Experimental data taken from patent US7956188B2, “Acetamide compounds as fungicides” (Syngenta Crop Protection, Inc., priority 2004, dated 2011).

melting point [°C]	SMILES
160 to 161	CSC(Oc1cc(Cl)c2ncc(Br)cc2c1)C(=O)NC(C)(C)C (stereo not drawn) [12 (62), 2-(3-bromo-8-chloro-quinolin-6-yloxy)-N-tert-butyl-2-methylsulfanyl-acetamide]
171 to 172	CSC(Oc1cc(I)c2ncc(Br)cc2c1)C(=O)NC(C)(C)C (stereo not drawn) [12 (62A), 2-(3-bromo-8-iodo-quinolin-6-yloxy)-N-tert-butyl-2-methylsulfanyl-acetamide]
123 to 125	CSC(Oc1cc(C)c(Br)c(C)c1)C(=O)NC(C)(C)C (stereo not drawn) [12 (15), 2-(4-bromo-3,5-dimethylphenoxy)-2-methylthio-N-(2-methyl-prop-2-yl)acetamide]
